{"source": "ChEMBL document CHEMBL4507291", "about": "(2021)", "key": {"[1]": {"molecular_target": "Serine/threonine-protein kinase MARK2 (Homo sapiens) (UniProt Q7KZI7)", "sequence (Q7KZI7 whole entry)": "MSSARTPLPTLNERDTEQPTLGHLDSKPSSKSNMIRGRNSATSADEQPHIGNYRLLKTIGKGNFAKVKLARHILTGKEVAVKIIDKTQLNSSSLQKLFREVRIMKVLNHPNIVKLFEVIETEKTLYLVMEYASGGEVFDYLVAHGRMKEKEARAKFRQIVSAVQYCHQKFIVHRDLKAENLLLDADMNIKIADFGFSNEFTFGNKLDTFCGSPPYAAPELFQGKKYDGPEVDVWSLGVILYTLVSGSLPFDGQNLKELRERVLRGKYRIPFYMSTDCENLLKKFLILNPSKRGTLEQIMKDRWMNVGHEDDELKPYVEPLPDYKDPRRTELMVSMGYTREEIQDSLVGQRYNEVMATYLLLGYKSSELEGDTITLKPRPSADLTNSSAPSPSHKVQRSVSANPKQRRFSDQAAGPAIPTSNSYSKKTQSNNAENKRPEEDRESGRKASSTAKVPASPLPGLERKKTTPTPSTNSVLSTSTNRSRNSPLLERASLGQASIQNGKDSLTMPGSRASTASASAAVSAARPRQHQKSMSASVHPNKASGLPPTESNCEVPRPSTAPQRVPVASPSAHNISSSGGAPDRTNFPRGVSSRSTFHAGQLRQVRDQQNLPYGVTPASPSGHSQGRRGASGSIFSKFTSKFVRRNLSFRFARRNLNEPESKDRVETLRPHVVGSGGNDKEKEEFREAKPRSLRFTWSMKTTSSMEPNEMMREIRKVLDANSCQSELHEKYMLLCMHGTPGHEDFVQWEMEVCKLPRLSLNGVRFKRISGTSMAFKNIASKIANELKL"}, "[2]": {"molecular_target": "Insulin receptor-related protein (Homo sapiens) (UniProt P14616)"}, "[3]": {"molecular_target": "Ribosomal protein S6 kinase alpha-3 (Homo sapiens) (UniProt P51812)", "sequence (P51812 whole entry)": "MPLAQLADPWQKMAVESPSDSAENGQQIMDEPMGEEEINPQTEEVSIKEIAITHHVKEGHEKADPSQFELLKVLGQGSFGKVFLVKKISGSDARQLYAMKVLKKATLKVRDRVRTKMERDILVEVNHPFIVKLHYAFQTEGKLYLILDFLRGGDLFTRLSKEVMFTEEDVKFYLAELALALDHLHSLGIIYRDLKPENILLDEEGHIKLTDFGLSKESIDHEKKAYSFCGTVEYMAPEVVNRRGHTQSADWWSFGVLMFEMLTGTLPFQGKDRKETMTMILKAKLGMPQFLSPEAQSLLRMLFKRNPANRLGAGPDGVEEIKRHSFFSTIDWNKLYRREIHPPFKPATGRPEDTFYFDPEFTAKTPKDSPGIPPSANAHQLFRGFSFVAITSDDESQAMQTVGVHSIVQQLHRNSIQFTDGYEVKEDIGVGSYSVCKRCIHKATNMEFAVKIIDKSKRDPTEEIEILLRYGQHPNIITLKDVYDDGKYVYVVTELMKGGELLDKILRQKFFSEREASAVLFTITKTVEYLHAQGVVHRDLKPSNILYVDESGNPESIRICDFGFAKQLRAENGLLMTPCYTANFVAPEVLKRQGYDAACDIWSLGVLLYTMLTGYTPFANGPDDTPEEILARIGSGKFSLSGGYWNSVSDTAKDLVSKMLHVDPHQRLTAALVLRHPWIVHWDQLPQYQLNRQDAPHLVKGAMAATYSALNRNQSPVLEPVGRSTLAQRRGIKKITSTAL"}, "[4]": {"molecular_target": "Mitogen-activated protein kinase kinase kinase 13 (Homo sapiens) (UniProt O43283)", "sequence (O43283 whole entry)": "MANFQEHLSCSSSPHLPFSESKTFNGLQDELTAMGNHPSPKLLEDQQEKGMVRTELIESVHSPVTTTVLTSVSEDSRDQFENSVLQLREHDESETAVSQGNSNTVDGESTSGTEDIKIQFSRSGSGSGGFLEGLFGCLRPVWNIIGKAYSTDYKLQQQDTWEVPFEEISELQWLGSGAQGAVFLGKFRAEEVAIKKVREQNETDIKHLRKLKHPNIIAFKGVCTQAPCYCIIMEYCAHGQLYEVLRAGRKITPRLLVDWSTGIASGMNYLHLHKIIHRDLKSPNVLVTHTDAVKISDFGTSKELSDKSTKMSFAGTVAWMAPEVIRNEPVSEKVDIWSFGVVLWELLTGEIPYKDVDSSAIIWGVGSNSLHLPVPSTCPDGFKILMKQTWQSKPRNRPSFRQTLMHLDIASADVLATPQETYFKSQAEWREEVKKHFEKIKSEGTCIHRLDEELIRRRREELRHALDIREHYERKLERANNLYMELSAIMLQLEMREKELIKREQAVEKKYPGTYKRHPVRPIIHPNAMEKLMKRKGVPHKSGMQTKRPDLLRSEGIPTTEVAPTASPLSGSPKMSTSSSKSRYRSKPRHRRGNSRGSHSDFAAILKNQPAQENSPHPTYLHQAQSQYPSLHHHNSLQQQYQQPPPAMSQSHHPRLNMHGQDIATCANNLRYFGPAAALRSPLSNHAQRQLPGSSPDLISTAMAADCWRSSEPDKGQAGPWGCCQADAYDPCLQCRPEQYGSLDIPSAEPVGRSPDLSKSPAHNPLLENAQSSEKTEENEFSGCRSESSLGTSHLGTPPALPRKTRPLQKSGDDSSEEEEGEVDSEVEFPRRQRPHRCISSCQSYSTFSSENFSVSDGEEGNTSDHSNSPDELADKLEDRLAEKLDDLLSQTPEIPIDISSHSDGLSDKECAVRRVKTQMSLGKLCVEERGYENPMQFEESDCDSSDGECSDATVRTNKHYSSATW"}, "[5]": {"molecular_target": "Tyrosine-protein kinase Fyn (Homo sapiens) (UniProt P06241)", "sequence (P06241 2-537 limits assumed)": "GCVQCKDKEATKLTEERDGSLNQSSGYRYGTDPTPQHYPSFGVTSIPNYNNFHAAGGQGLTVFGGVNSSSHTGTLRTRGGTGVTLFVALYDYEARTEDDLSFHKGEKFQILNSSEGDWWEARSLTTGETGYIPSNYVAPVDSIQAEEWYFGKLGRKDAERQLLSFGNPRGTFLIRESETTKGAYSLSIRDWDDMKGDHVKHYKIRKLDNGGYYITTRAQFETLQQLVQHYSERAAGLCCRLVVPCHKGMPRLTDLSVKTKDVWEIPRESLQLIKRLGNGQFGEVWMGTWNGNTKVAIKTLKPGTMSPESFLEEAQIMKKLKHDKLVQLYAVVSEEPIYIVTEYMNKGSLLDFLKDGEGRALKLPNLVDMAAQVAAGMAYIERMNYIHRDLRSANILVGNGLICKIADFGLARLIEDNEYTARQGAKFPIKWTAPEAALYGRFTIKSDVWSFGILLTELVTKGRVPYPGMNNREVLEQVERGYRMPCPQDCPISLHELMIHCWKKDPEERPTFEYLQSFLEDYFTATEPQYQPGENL"}, "[6]": {"molecular_target": "Serine/threonine-protein kinase N1 (Homo sapiens) (UniProt Q16512)", "sequence (Q16512 2-942 limits assumed)": "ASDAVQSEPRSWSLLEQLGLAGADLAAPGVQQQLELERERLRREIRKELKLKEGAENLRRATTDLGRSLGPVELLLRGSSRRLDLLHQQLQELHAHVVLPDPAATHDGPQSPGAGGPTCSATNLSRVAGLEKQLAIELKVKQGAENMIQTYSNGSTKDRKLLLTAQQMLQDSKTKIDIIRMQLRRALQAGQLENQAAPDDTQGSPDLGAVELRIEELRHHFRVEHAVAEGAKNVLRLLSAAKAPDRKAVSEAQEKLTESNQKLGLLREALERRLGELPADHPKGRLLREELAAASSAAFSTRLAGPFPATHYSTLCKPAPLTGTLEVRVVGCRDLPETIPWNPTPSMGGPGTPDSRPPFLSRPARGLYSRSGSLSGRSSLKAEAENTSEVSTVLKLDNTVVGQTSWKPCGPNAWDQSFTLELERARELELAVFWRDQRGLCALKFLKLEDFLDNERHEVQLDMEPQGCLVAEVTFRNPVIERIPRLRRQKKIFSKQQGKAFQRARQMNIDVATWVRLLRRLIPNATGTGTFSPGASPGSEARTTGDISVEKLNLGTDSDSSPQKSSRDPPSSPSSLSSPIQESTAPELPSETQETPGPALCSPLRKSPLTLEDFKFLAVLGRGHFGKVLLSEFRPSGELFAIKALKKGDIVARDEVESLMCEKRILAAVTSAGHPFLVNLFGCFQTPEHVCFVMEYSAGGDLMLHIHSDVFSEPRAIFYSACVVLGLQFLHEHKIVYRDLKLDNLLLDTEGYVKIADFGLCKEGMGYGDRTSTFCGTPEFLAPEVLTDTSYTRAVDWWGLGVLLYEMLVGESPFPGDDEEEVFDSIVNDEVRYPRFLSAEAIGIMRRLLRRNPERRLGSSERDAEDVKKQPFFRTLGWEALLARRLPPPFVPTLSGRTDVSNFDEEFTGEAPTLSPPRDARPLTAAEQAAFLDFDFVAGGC"}, "[7]": {"molecular_target": "T1, Ephrin type-A receptor 3 (Homo sapiens) (UniProt P29320)", "T1 sequence (whole entry)": "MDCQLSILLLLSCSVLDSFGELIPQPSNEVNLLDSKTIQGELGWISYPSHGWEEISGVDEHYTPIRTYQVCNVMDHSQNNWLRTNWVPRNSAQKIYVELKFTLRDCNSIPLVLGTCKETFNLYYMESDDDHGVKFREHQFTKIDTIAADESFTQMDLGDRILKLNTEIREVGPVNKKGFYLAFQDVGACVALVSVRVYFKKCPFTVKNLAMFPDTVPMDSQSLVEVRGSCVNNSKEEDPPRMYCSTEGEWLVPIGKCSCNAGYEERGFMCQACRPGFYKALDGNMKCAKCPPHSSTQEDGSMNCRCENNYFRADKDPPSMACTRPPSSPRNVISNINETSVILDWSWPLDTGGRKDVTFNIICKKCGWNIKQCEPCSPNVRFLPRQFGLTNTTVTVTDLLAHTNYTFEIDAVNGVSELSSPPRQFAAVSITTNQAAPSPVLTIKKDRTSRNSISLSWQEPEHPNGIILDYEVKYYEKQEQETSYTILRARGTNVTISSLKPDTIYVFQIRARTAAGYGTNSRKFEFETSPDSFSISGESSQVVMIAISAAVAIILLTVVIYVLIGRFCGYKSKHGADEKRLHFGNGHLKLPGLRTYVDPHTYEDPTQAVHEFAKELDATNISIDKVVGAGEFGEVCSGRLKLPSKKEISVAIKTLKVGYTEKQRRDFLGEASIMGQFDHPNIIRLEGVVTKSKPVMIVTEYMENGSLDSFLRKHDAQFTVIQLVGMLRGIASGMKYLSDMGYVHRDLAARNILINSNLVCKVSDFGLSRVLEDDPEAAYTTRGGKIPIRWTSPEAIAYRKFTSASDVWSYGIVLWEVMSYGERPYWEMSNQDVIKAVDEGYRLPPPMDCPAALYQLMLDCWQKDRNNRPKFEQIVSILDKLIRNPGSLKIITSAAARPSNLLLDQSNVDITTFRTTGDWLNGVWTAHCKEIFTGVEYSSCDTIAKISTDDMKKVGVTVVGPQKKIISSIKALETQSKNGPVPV"}, "[8]": {"molecular_target": "Non-receptor tyrosine-protein kinase TNK1 (Homo sapiens) (UniProt Q13470)"}, "[9]": {"molecular_target": "T2, Dual specificity mitogen-activated protein kinase kinase 6 (Homo sapiens) (UniProt P52564)", "T2 sequence (whole entry)": "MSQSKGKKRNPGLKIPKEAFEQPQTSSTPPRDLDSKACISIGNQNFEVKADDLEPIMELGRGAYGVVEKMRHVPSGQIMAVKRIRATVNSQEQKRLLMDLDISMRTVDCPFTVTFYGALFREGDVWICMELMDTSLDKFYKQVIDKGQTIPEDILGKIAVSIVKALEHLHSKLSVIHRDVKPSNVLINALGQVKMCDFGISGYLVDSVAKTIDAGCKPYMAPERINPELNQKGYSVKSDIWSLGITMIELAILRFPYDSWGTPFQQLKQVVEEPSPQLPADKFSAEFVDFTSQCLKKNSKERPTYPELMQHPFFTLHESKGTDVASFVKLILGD"}, "[10]": {"test_system": "Epidermal growth factor receptor (Homo sapiens), P00533 [UNDEFINED MUTATION]"}, "[11]": {"molecular_target": "Serine/threonine-protein kinase 32A (Homo sapiens) (UniProt Q8WU08)", "sequence (Q8WU08 whole entry)": "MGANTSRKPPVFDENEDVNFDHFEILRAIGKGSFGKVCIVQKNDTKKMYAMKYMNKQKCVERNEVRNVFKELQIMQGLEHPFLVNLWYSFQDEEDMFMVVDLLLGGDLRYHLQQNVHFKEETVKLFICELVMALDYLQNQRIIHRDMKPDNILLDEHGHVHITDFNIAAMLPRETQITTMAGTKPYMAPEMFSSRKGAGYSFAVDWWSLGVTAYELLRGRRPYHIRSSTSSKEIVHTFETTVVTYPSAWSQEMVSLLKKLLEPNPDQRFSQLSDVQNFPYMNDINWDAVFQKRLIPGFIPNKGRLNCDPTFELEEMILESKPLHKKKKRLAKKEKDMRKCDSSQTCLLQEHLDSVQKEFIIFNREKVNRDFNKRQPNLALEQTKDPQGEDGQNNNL"}, "[12]": {"molecular_target": "Serine/threonine-protein kinase RIO2 (Homo sapiens) (UniProt Q9BVS4)", "sequence (Q9BVS4 whole entry, looked up)": "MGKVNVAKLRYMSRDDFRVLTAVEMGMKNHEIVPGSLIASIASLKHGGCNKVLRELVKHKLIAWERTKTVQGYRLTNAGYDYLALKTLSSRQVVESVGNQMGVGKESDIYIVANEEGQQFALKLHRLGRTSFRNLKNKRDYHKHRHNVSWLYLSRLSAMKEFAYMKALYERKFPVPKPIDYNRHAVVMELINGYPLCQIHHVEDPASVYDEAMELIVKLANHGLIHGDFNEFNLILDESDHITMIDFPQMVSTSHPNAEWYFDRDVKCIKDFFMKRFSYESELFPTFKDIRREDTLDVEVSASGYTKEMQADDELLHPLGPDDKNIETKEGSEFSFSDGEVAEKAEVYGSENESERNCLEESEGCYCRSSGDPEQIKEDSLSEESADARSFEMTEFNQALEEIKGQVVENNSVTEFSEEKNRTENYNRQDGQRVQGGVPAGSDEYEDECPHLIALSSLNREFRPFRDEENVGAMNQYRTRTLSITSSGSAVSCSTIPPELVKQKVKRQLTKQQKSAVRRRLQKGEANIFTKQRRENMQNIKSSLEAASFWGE"}, "[13]": {"test_system": "Proto-oncogene tyrosine-protein kinase receptor Ret (Homo sapiens), P07949 [V804L]"}, "[14]": {"settings": "Compound concentration 100.0 nM"}, "[15]": {"settings": "Compound concentration 1000.0 nM"}}}
{"compound": "C[C@@H]1CN(c2cc(-c3n[nH]c4ccc(OC5(C)CC5)cc34)ncn2)C[C@H](C)O1", "note": "[MLi-2]", "values": [{"measurement": "residual activity", "setting": "[1]; [14]", "value": 100, "unit": "%"}, {"measurement": "residual activity", "setting": "[2]; [14]", "value": 57, "unit": "%"}, {"measurement": "residual activity", "setting": "[3]; [14]", "value": 73, "unit": "%"}, {"measurement": "residual activity", "setting": "[4]; [14]", "value": 0, "unit": "%"}, {"measurement": "residual activity", "setting": "[5]; [14]", "value": 100, "unit": "%"}, {"measurement": "residual activity", "setting": "[6]; [14]", "value": 91, "unit": "%"}, {"measurement": "residual activity", "setting": "[7]; [14]", "value": 93, "unit": "%"}, {"measurement": "residual activity", "setting": "[8]; [14]", "value": 76, "unit": "%"}, {"measurement": "residual activity", "setting": "[9]; [14]", "value": 100, "unit": "%"}, {"measurement": "residual activity", "setting": "[10]; [14]", "value": 43, "unit": "%"}, {"measurement": "residual activity", "setting": "[11]; [14]", "value": 92, "unit": "%"}, {"measurement": "residual activity", "setting": "[12]; [14]", "value": 68, "unit": "%"}, {"measurement": "residual activity", "setting": "[13]; [14]", "value": 98, "unit": "%"}]}
{"compound": "C[C@@H]1CN(c2cc(-c3nn(C)c4ccc(OC5(C)CC5)cc34)ncn2)C[C@H](C)O1", "note": "[MLi-2-NC]", "values": [{"measurement": "residual activity", "setting": "[1]; [15]", "value": 89, "unit": "%"}, {"measurement": "residual activity", "setting": "[2]; [15]", "value": 91, "unit": "%"}, {"measurement": "residual activity", "setting": "[3]; [15]", "value": 82, "unit": "%"}, {"measurement": "residual activity", "setting": "[4]; [15]", "value": 91, "unit": "%"}, {"measurement": "residual activity", "setting": "[5]; [15]", "value": 98, "unit": "%"}, {"measurement": "residual activity", "setting": "[6]; [15]", "value": 100, "unit": "%"}, {"measurement": "residual activity", "setting": "[7]; [15]", "value": 68, "unit": "%"}, {"measurement": "residual activity", "setting": "[8]; [15]", "value": 95, "unit": "%"}, {"measurement": "residual activity", "setting": "[9]; [15]", "value": 89, "unit": "%"}, {"measurement": "residual activity", "setting": "[10]; [15]", "value": 74, "unit": "%"}, {"measurement": "residual activity", "setting": "[11]; [15]", "value": 78, "unit": "%"}, {"measurement": "residual activity", "setting": "[12]; [15]", "value": 100, "unit": "%"}, {"measurement": "residual activity", "setting": "[13]; [15]", "value": 72, "unit": "%"}]}
